Measured values as given in ChEMBL document CHEMBL1133311, “Synthesis and PKC isozyme surrogate binding of indothiolactam-V, a new thioamide analogue of tumor promoting indolactam-V” (Bioorg Med Chem Lett, 2000).

Legend:
[1] = biological target: T1, Protein kinase C alpha type (Homo sapiens, UniProt P17252); assay: Displacement of [3H]- PDBu from Protein kinase C alpha C1b domain
[2] = biological target: T1, Protein kinase C alpha type; assay: Displacement of [3H]- PDBu from Protein kinase C alpha C1a domain
[3] = biological target: T2, Protein kinase C delta type (Homo sapiens, UniProt Q05655); assay: Displacement of [3H]- PDBu from Protein kinase C delta C1b domain
[4] = biological target: T3, Protein kinase C gamma type (Homo sapiens, UniProt P05129); assay: Displacement of [3H]- PDBu from Protein kinase C gamma C1b domain
[5] = biological target: T4, Protein kinase C epsilon type (Homo sapiens, UniProt Q02156); assay: Displacement of [3H]- PDBu from Protein kinase C epsilon C1a domain
T4 sequence (Q02156 whole entry): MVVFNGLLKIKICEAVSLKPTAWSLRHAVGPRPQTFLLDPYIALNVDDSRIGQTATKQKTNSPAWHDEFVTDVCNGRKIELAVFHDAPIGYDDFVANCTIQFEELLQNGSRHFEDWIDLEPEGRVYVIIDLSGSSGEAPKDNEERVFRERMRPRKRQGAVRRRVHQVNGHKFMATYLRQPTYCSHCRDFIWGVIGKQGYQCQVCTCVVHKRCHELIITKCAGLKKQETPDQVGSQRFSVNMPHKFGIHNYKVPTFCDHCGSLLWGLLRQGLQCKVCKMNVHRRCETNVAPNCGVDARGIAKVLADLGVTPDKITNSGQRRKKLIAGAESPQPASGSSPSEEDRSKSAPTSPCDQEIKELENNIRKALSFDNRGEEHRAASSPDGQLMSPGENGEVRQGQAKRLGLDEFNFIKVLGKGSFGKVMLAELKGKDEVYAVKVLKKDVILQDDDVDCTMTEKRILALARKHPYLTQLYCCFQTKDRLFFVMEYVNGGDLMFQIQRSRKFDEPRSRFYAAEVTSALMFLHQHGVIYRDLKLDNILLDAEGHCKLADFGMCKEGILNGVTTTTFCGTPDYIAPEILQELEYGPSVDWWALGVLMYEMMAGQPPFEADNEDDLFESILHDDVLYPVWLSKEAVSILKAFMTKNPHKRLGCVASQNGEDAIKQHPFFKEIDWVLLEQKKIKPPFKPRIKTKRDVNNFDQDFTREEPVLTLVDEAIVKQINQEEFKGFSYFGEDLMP

[6] = biological target: T5, Protein kinase C beta type (Homo sapiens, UniProt P05771); assay: Displacement of [3H]- PDBu from Protein kinase C beta C1a domain
[7] = biological target: T6, Protein kinase C eta type (Homo sapiens, UniProt P24723); assay: Displacement of [3H]- PDBu from Protein kinase C eta C1b domain
[8] = biological target: T5, Protein kinase C beta type; assay: Displacement of [3H]- PDBu from Protein kinase C beta C1b domain
[9] = biological target: Protein kinase C theta type (Homo sapiens, UniProt Q04759); assay: Displacement of [3H]- PDBu from Protein kinase C theta C1b domain
[10] = biological target: T4, Protein kinase C epsilon type; assay: Displacement of [3H]- PDBu from Protein kinase C epsilon C1b domain
[11] = biological target: T2, Protein kinase C delta type; assay: Displacement of [3H]- PDBu from Protein kinase C delta C1a domain
[12] = biological target: T3, Protein kinase C gamma type; assay: Displacement of [3H]- PDBu from Protein kinase C gamma C1a domain
[13] = biological target: T6, Protein kinase C eta type; assay: Displacement of [3H]- PDBu from Protein kinase C eta C1a domain

T2 sequence (Q05655 whole entry, the tested form may be a part): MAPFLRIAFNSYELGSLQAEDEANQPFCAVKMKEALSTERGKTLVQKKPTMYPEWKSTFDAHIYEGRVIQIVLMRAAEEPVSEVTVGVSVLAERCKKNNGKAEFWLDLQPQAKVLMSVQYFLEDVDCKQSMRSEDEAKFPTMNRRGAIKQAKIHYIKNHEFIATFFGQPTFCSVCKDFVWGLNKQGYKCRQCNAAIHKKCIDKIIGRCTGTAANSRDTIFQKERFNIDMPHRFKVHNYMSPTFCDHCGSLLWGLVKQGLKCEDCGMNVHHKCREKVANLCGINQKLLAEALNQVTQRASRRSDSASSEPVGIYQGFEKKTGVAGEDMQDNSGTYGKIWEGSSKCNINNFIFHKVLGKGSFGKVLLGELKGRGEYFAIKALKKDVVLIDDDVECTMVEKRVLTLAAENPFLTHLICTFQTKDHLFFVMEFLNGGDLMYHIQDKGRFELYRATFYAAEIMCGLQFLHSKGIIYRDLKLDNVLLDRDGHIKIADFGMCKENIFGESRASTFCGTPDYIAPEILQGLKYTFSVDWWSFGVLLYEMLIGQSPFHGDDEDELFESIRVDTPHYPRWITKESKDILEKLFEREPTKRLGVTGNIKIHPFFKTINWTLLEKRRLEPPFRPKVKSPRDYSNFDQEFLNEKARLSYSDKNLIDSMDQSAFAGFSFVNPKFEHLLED
T6 sequence (P24723 whole entry, the tested form may be a part): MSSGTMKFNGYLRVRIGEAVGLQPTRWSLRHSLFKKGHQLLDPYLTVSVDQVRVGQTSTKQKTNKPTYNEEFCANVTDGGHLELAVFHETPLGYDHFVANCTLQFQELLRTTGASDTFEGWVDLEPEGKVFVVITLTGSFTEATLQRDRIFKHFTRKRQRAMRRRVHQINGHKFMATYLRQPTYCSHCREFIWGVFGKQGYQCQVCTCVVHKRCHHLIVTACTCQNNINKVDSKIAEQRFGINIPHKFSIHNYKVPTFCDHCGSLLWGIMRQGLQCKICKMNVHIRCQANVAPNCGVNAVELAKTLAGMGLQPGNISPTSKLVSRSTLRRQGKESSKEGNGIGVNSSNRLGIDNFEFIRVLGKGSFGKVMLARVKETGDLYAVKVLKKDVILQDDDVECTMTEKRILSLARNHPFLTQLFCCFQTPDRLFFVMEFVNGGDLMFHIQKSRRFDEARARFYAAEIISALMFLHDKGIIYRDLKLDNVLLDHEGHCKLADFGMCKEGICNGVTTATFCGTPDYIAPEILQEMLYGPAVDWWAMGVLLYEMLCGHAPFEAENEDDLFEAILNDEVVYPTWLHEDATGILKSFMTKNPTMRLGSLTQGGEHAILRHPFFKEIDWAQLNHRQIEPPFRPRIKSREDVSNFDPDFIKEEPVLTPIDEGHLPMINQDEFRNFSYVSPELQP
T5 sequence (P05771 whole entry, the tested form may be a part): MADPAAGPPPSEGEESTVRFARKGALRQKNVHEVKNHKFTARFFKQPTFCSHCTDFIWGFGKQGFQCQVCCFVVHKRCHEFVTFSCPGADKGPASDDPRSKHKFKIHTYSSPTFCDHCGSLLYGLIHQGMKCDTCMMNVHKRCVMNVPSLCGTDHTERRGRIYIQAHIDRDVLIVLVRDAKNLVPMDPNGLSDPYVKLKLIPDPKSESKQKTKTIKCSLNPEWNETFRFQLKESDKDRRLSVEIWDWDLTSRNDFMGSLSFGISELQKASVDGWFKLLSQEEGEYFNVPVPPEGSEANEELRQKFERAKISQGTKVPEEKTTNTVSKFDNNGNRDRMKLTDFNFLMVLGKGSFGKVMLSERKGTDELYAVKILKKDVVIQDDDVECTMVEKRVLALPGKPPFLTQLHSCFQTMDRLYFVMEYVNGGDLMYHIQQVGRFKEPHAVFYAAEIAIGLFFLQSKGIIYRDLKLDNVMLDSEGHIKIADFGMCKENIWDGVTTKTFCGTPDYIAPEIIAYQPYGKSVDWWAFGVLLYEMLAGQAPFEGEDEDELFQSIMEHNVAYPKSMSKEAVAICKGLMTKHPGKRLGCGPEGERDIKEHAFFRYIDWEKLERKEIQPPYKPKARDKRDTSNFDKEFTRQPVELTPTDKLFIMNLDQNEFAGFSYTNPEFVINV
Sequence of Protein kinase C theta type (Q04759 whole entry, the tested form may be a part): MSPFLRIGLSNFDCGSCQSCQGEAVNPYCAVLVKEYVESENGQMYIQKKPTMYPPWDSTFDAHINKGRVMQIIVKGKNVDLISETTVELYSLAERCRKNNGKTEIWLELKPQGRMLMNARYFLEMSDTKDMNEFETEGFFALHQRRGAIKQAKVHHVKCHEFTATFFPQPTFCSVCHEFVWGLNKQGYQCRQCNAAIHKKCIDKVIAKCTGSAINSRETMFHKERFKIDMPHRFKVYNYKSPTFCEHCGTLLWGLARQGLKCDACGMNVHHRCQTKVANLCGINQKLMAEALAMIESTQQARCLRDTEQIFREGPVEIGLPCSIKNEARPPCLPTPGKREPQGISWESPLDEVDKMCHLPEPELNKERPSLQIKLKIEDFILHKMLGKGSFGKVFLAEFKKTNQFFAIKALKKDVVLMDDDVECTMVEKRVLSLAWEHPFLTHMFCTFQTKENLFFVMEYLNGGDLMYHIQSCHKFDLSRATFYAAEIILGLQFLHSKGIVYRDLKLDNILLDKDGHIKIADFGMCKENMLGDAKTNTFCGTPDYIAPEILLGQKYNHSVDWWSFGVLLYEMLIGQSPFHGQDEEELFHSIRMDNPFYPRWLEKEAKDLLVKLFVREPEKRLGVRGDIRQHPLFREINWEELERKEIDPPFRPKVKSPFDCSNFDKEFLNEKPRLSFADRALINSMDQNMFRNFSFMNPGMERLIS

Compound	Ki [1]	Ki [2]	Ki [3]	Ki [4]	Ki [5]	Ki [6]	Ki [7]	Ki [8]	Ki [9]	Ki [10]	Ki [11]	Ki [12]	Ki [13]
CC(C)[C@H]1C(=S)N[C@H](CO)Cc2c[nH]c3cccc(c23)N1C	2.14 µM	261 nM	67.5 nM	288 nM	3.86 µM	180 nM	20.6 nM	226 nM	61.6 nM	41.5 nM	2950 nM	296 nM	2160 nM
CC(C)[C@H]1C(=O)N[C@H](CO)Cc2c[nH]c3cccc(c23)N1C [INDOLACTUM]	4 µM	127 nM	8.3 nM	213 nM	4.11 µM	173 nM	5.5 nM	136 nM	8.7 nM	7.7 nM	1900 nM	138 nM	3770 nM
